From patent publication US20250223306A1, “TEAD INHIBITORS AND METHODS OF USE” (Sporos BioDiscovery, Inc., priority 2022, published 2025) come the findings set out here.

One assay relates to NCI-H226 cells. The experiment in a line: Proliferation, Cell Titer One assay. Format: cell-based. To be noted: 6 days. On the procedure:
(§1) Cell proliferation of a TEAD dependent NF2-null mesothelioma cell line, NCI-H226, and a TEAD-non-dependent mesothelioma cell line, NCI-H28 was assayed using two different protocols: • a) CellTiter-Glo 2.0 (Promega #G9243). The effect of the TEAD inhibitors disclosed herein on cell proliferation was determined in TEAD1-genetically dependent cell line NCI-H226 (responder cell line) and TEAD-independent cell lines (NCI-H23, HEK293T), as non-responder, negative control. Cells were seeded in 96-well plates (Thermo Scientific #167008) in growth media (RPMI-1640, Gibco #61870-010) for NCI-H226 and NCI-H23 or DMEM (Gibco #31966-021, HEK293T) with 10% Heat Inactivated Fetal Bovine Serum (Gibco 10500-064) at 800 (NCI-H226 and HEK-293T) or 2000 (NCI-H23) cells per well at 37° C., 5% CO2, humidified incubator; 24 hours later, fresh growth media containing test compound or DMSO vehicle was added and incubated with the cells for 144 hrs. TEAD inhibitor stocks were made at a 1000× fold excess in DMSO, and a dose response test compound dose range of 10,000 to 0.1 nM was used. Each treatment was carried out in triplicate. After 144 hrs of treatment, relative cell viability numbers were determined using the CellTiter-Glo 2.0 assay following the manufacturer's instructions. Test plates and CellTiter-Glo 2.0 reagent were allowed to equilibrate to room temperature. CellTiter-Glo 2.0 reagent was added at 1:1 reagent to media ratio to the 96-well cell plates, plates were placed on a plate shaker for 2 minutes and then incubated at room temperature for a further 10 minutes to allow complete cell lysis to occur. The mix was then transferred to white, 96-well luminometer assay plates (Greiner Bio One #655075). Luminescence was quantified using a CLARIOStar Plus multi-mode plate reader (BMG Labtech) in luminescence detection mode with the recommended settings (ultra-Glo pre-set: emission 545-50 nm with autofocus and enhanced dynamic range on). Relative cell density was expressed as a function of inhibitor concentration, with respect to DMSO-only control wells. Data where plotted using GraphPad Prism and IC50 values for the biological effect were calculated using the EC50 non-linear fit function using a sigmoidal, 4-parameter logistic, least squares fit with no constraints. • b) Cell Titer One (Promega, #G3582). The effect of the TEAD inhibitors disclosed herein on cell proliferation was also determined using the Promega Substrate Cell Titer Aqueous One Solution Reagent. The TEAD inhibitors were evaluated for the effects on cell proliferation responder (H226) and non-responder negative control cancer cell lines (CAMA1, H28), as well as non-transformed normal human cells (HUVEC, NHDF). Dissociated cells were resuspend in media (depending on cell line, either in DMEM, RPMI, or EMEM all with 10% FBS, with gentamicin as an antibiotic). Cells were seeded at 100 μL/well at 750 cells per well in 96-well plates and allowed to settle and attach. After an incubation of 24 hrs (37° C., 5% CO2, humidified incubator), 100 μL of test compound-containing media was added. A dilution series of 2000× concentrated stock of test compounds was prepared in DMSO, for final concentrations from 0.1 to 10,000 nM. After addition of test compound-containing media, cells were incubated for 6 days at 37° C., 5% CO2, humidified incubators). To measure cell density, 20 μL of Promega Substrate Cell Titer 96 Aqueous One Solution Reagent (Promega, #G3582) to each well was added according to the manufacturer's instructions. Plates were incubated at 37° C. for usually 3-8 hrs, to reach in the control cells (without compound) an OD of 1.5 at 490 nm. The OD was measured using Vmax [Molecular Devices] spectrophotometer plate reader. Media only-wells were used as background controls and cell densities normalized to DMSO vehicle control. ECs were taken as the concentration achieving 50% of maximal growth inhibition.

Another assay deals with NCI-H28 cells. The assay can be described thus: Proliferation, Cell Titer One assay. It is filed as cell-based. To be noted: 6 days. The procedure:
as §1

A word on the IC50: it is the concentration needed to halve the response being measured. A high value points to weaker potency in that assay.

For the compound `C[C@H](NC(=O)c1cnc2c(C3=CC[C@@H](C(F)(F)F)CC3)cccc2c1)c1ncco1` (single isomer, unassigned) [Compound 19, N-(1-(oxazol-2-yl)ethyl)-8-(4-(trifluoromethyl)cyclohex-1-en-1-yl)quinoline-3-carboxamide], the IC50 with NCI-H226 cells (Homo sapiens, NCI-H226, 144 h) was < 200 nM; with NCI-H28 cells (Homo sapiens, NCI-H28, 144 h), > 1000 nM.
With `C[C@H](NC(=O)c1cnc2c(C3=CC[C@@H](C(F)(F)F)CC3)cccc2c1)c1ncco1` (single isomer, unassigned) [Compound 20, N-(1-(oxazol-2-yl)ethyl)-8-(4-(trifluoromethyl)cyclohex-1-en-1-yl)quinoline-3-carboxamide], the results for the IC50 in the assay with NCI-H226 cells and in the assay with NCI-H28 cells were < 200 nM and > 1000 nM, respectively.
With `C[C@H](NC(=O)c1cnc2c(C3=CCC(C(F)(F)F)CC3)cccc2c1)c1ccccn1` (stereo partly drawn) [Compound 2, N—((S)-1-(pyridin-2-yl)ethyl)-8-(4-(trifluoromethyl)cyclohex-1-en-1-yl)quinoline-3-carboxamide], the IC50 with NCI-H226 cells (Homo sapiens, NCI-H226, 144 h) was < 200 nM; in the assay on NCI-H28 cells (Homo sapiens, NCI-H28, 144 h), > 1000 nM.
Taken in the same sequence, the figures for `C[C@H](CO)NC(=O)c1cnc2c(C3=CCC(C(F)(F)F)CC3)cccc2c1` (stereo partly drawn) [Compound 7, N—((R)-1-hydroxypropan-2-yl)-8-(4-(trifluoromethyl)cyclohex-1-en-1-yl)quinoline-3-carboxamide] were < 200 nM and > 1000 nM.
Taken in the same sequence, the figures for `O=C(NCc1ncco1)c1cnc2c(C3=CCC(C(F)(F)F)CC3)cccc2c1` (stereo not shown) [Compound 11, N-(oxazol-2-ylmethyl)-8-(4-(trifluoromethyl)cyclohex-1-en-1-yl)quinoline-3-carboxamide] were < 200 nM and > 1000 nM.
